Assay: Dissolution in deionized water or HCl 15% (Example 1)
Format: physicochemical
Details: 20 hours at 180° F., then 3 hours at room temperature
Method: Phthalic anhydride (obtained from a commercial supplier) and Sample A (8 g of each) were first mixed with 100 mL deionized water or HCl 15% and maintained for 20 hours at 180° F., and then cooled down to room temperature and kept for 3 hours.

O=C1OC(=O)c2ccccc21 [Commercial Phthalic Anhydride, Phthalic anhydride]
Dissolved (%) (8 g in 100 mL HCl 15%): 4% | Dissolved (%) (8 g in 100 mL deionized water): 6%

From patent US9938811B2, “Method of enhancing fracture complexity using far-field divert systems” (Baker Hughes, LLC, priority 2013, dated 2018)
